Assay: xn = mol fraction of the nth substance listed
Conditions: 101.33 kPa, Liquid

C[S+](C)[O-] [dimethyl sulfoxide] + c1ccccc1
Conditions | mass density [kg/m3]
293.15 K, x2 = 0.0589 | 1084.47
293.15 K, x2 = 0.1255 | 1067.5
293.15 K, x2 = 0.1852 | 1052.58
293.15 K, x2 = 0.2561 | 1035.37
293.15 K, x2 = 0.2934 | 1026.52
293.15 K, x2 = 0.3345 | 1016.91
293.15 K, x2 = 0.3782 | 1006.87
293.15 K, x2 = 0.4312 | 994.89
293.15 K, x2 = 0.4757 | 985.02
293.15 K, x2 = 0.5963 | 958.97
293.15 K, x2 = 0.6875 | 939.81
293.15 K, x2 = 0.7369 | 929.61
293.15 K, x2 = 0.8637 | 903.71
293.15 K, x2 = 0.9562 | 885.02
303.15 K, x2 = 0.0596 | 1075.16
303.15 K, x2 = 0.1345 | 1056.18
303.15 K, x2 = 0.194 | 1041.49
303.15 K, x2 = 0.2473 | 1028.63
303.15 K, x2 = 0.2893 | 1018.74
303.15 K, x2 = 0.3465 | 1005.44
303.15 K, x2 = 0.4213 | 988.61
303.15 K, x2 = 0.4835 | 974.94
303.15 K, x2 = 0.5431 | 962.12
303.15 K, x2 = 0.5968 | 950.76
303.15 K, x2 = 0.6763 | 934.26
303.15 K, x2 = 0.7781 | 913.49
303.15 K, x2 = 0.8511 | 898.8
303.15 K, x2 = 0.9542 | 878.27
313.15 K, x2 = 0.059 | 1064.91
313.15 K, x2 = 0.1267 | 1047.76
313.15 K, x2 = 0.1873 | 1032.78
313.15 K, x2 = 0.2676 | 1013.53
313.15 K, x2 = 0.2933 | 1007.51
313.15 K, x2 = 0.3378 | 997.22
313.15 K, x2 = 0.4321 | 976.04
313.15 K, x2 = 0.4752 | 966.67
313.15 K, x2 = 0.5514 | 950.39
313.15 K, x2 = 0.6011 | 939.97
313.15 K, x2 = 0.6837 | 923
313.15 K, x2 = 0.7653 | 906.53
313.15 K, x2 = 0.8681 | 886.1
313.15 K, x2 = 0.9499 | 870
323.15 K, x2 = 0.0602 | 1054.55
323.15 K, x2 = 0.1257 | 1038.36
323.15 K, x2 = 0.1833 | 1024.43
323.15 K, x2 = 0.2512 | 1008.48
323.15 K, x2 = 0.3294 | 990.67
323.15 K, x2 = 0.3931 | 976.6
323.15 K, x2 = 0.4615 | 961.88
323.15 K, x2 = 0.5232 | 948.95
323.15 K, x2 = 0.5972 | 933.77
323.15 K, x2 = 0.6502 | 923.09
323.15 K, x2 = 0.7149 | 910.25
323.15 K, x2 = 0.7896 | 895.64
323.15 K, x2 = 0.8788 | 878.39
323.15 K, x2 = 0.9556 | 863.66
333.15 K, x2 = 0.0593 | 1044.75
333.15 K, x2 = 0.1279 | 1028.18
333.15 K, x2 = 0.1801 | 1015.83
333.15 K, x2 = 0.2566 | 998.31
333.15 K, x2 = 0.3263 | 982.84
333.15 K, x2 = 0.3862 | 969.9
333.15 K, x2 = 0.4523 | 955.99
333.15 K, x2 = 0.5213 | 941.87
333.15 K, x2 = 0.5869 | 928.72
333.15 K, x2 = 0.6532 | 915.7
333.15 K, x2 = 0.7256 | 901.71
333.15 K, x2 = 0.7959 | 888.33
333.15 K, x2 = 0.8864 | 871.29
333.15 K, x2 = 0.9116 | 866.58
343.15 K, x2 = 0.0593 | 1034.67
343.15 K, x2 = 0.1356 | 1016.68
343.15 K, x2 = 0.2182 | 997.86
343.15 K, x2 = 0.2636 | 987.78
343.15 K, x2 = 0.3296 | 973.51
343.15 K, x2 = 0.3938 | 960.01
343.15 K, x2 = 0.4686 | 944.74
343.15 K, x2 = 0.5213 | 934.26
343.15 K, x2 = 0.5769 | 923.38
343.15 K, x2 = 0.6623 | 907.03
343.15 K, x2 = 0.7385 | 892.7
343.15 K, x2 = 0.7801 | 884.99
343.15 K, x2 = 0.8569 | 870.86
343.15 K, x2 = 0.9503 | 853.81
353.15 K, x2 = 0.058 | 1024.84
353.15 K, x2 = 0.1585 | 1001.73
353.15 K, x2 = 0.2335 | 985.09
353.15 K, x2 = 0.3065 | 969.42
353.15 K, x2 = 0.3765 | 954.93
353.15 K, x2 = 0.4187 | 946.35
353.15 K, x2 = 0.4682 | 936.49
353.15 K, x2 = 0.5242 | 925.57
353.15 K, x2 = 0.5912 | 912.8
353.15 K, x2 = 0.6404 | 903.56
353.15 K, x2 = 0.7556 | 882.4
353.15 K, x2 = 0.8024 | 873.93
353.15 K, x2 = 0.8701 | 861.79
353.15 K, x2 = 0.9284 | 851.4

CCc1ccccc1 [ethylbenzene] + C[S+](C)[O-]
Conditions | mass density [kg/m3]
293.15 K, x1 = 0.0626 | 1076.31
293.15 K, x1 = 0.1596 | 1043.57
293.15 K, x1 = 0.2203 | 1025.03
293.15 K, x1 = 0.2983 | 1003.06
293.15 K, x1 = 0.3698 | 984.55
293.15 K, x1 = 0.4623 | 962.58
293.15 K, x1 = 0.5186 | 950.18
293.15 K, x1 = 0.5712 | 939.18
293.15 K, x1 = 0.6285 | 927.89
293.15 K, x1 = 0.6802 | 918.18
293.15 K, x1 = 0.7525 | 905.36
293.15 K, x1 = 0.8102 | 895.69
293.15 K, x1 = 0.8723 | 885.81
293.15 K, x1 = 0.9456 | 874.79
303.15 K, x1 = 0.0669 | 1065.53
303.15 K, x1 = 0.1456 | 1038.79
303.15 K, x1 = 0.2569 | 1005.2
303.15 K, x1 = 0.3203 | 988
303.15 K, x1 = 0.3956 | 969
303.15 K, x1 = 0.4569 | 954.63
303.15 K, x1 = 0.5132 | 942.23
303.15 K, x1 = 0.5856 | 927.28
303.15 K, x1 = 0.6277 | 919.04
303.15 K, x1 = 0.7065 | 904.51
303.15 K, x1 = 0.7856 | 890.93
303.15 K, x1 = 0.8359 | 882.8
303.15 K, x1 = 0.8856 | 875.1
303.15 K, x1 = 0.9503 | 865.51
313.15 K, x1 = 0.0624 | 1056.77
313.15 K, x1 = 0.1459 | 1028.39
313.15 K, x1 = 0.2201 | 1005.62
313.15 K, x1 = 0.2692 | 991.65
313.15 K, x1 = 0.3314 | 975.03
313.15 K, x1 = 0.3963 | 958.87
313.15 K, x1 = 0.4456 | 947.35
313.15 K, x1 = 0.4965 | 936.07
313.15 K, x1 = 0.5216 | 930.71
313.15 K, x1 = 0.5986 | 915.08
313.15 K, x1 = 0.6853 | 898.86
313.15 K, x1 = 0.7526 | 887.13
313.15 K, x1 = 0.8418 | 872.68
313.15 K, x1 = 0.9258 | 860.05
323.15 K, x1 = 0.0625 | 1046.39
323.15 K, x1 = 0.1786 | 1007.95
323.15 K, x1 = 0.2469 | 987.84
323.15 K, x1 = 0.3095 | 970.78
323.15 K, x1 = 0.3698 | 955.5
323.15 K, x1 = 0.4152 | 944.61
323.15 K, x1 = 0.4723 | 931.67
323.15 K, x1 = 0.5362 | 918.08
323.15 K, x1 = 0.6048 | 904.45
323.15 K, x1 = 0.6604 | 894.04
323.15 K, x1 = 0.7301 | 881.76
323.15 K, x1 = 0.7992 | 870.36
323.15 K, x1 = 0.8683 | 859.65
323.15 K, x1 = 0.9226 | 851.65
333.15 K, x1 = 0.066 | 1034.83
333.15 K, x1 = 0.1159 | 1017.74
333.15 K, x1 = 0.1896 | 994.42
333.15 K, x1 = 0.2156 | 986.74
333.15 K, x1 = 0.2765 | 969.61
333.15 K, x1 = 0.3286 | 955.9
333.15 K, x1 = 0.3964 | 939.26
333.15 K, x1 = 0.4598 | 924.75
333.15 K, x1 = 0.5349 | 908.81
333.15 K, x1 = 0.6126 | 893.53
333.15 K, x1 = 0.6861 | 880.14
333.15 K, x1 = 0.7698 | 865.99
333.15 K, x1 = 0.8459 | 854.04
333.15 K, x1 = 0.9025 | 845.66
343.15 K, x1 = 0.0599 | 1026.68
343.15 K, x1 = 0.1569 | 994.32
343.15 K, x1 = 0.2363 | 970.71
343.15 K, x1 = 0.3001 | 953.33
343.15 K, x1 = 0.3895 | 931.07
343.15 K, x1 = 0.4519 | 916.81
343.15 K, x1 = 0.5163 | 903.06
343.15 K, x1 = 0.5698 | 892.31
343.15 K, x1 = 0.6389 | 879.27
343.15 K, x1 = 0.6895 | 870.27
343.15 K, x1 = 0.7558 | 859.13
343.15 K, x1 = 0.8106 | 850.44
343.15 K, x1 = 0.8895 | 838.64
343.15 K, x1 = 0.9502 | 830.09
353.15 K, x1 = 0.059 | 1016.69
353.15 K, x1 = 0.1555 | 984.6
353.15 K, x1 = 0.2236 | 964.29
353.15 K, x1 = 0.2856 | 947.23
353.15 K, x1 = 0.3384 | 933.66
353.15 K, x1 = 0.4089 | 916.78
353.15 K, x1 = 0.4625 | 904.82
353.15 K, x1 = 0.5185 | 893.03
353.15 K, x1 = 0.5665 | 883.47
353.15 K, x1 = 0.6255 | 872.34
353.15 K, x1 = 0.6706 | 864.28
353.15 K, x1 = 0.7556 | 850
353.15 K, x1 = 0.8326 | 838.04
353.15 K, x1 = 0.9129 | 826.41

— the NIST ThermoML archive (doi:10.1016/j.jct.2004.07.024)
